Laboratory results from paper PMC8839659, “Evolution of DIMBOA-Glc O-Methyltransferases from Flavonoid O-Methyltransferases in the Grasses” (Molecules, 2022).

Columns and labels:
Assay in all cases: LC-MS/MS product formation
Type in all cases: biochemical
ZmBX12 = molecular target: T1, ZmBX12 (Zea mays, UniProt S5S8L0); details: SAM cosubstrate 100 µM, 20 µM substrate, pH 7, 25 °C, 1 h
T1 construct: pASK-IBA37plus, N-terminal His tag, E. coli BL21(DE3), purified
T1 sequence (S5S8L0 1-370): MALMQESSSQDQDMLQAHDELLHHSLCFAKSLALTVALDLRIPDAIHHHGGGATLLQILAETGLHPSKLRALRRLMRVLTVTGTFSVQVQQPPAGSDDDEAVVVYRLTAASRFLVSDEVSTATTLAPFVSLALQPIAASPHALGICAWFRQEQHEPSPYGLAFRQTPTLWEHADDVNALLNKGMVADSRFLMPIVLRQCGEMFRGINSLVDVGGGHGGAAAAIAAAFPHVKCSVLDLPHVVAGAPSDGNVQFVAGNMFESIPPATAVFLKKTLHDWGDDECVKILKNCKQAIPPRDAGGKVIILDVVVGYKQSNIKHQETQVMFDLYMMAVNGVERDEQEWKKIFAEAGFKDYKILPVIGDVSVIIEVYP

SbFOMT2 = molecular target: T2, SbFOMT2 (Sorghum bicolor, UniProt C5WYJ6); details: SAM cosubstrate 100 µM; 20 µM substrate; pH 7; 25 °C; 1 h; flavonoid 5-O-methylation, trace isokaempferide
T2 construct: gene SORBI_3001G354400; full-length ORF from leaf cDNA, in pET100/D-TOPO or pASK-IBA37plus, N-terminal His tag, E. coli BL21(DE3), purified
T2 sequence (C5WYJ6 1-365): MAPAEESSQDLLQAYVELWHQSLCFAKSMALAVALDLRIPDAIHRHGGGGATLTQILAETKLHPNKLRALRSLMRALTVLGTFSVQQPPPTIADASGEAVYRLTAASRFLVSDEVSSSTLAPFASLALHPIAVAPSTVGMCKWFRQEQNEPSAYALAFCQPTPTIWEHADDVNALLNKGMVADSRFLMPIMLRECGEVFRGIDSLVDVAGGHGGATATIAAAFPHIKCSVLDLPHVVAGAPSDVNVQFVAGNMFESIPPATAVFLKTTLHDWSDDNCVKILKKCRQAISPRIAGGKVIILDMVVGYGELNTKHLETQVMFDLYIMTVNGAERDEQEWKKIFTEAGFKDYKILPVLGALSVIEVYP

ZmBX10 = molecular target: T3, ZmBX10 (Zea mays, UniProt S5S768); details: SAM cosubstrate 100 µM; 20 µM substrate; pH 7; 25 °C; 1 h; product isokaempferide
T3 construct: pASK-IBA37plus, N-terminal His tag, E. coli BL21(DE3), purified
T3 sequence (S5S768 1-375): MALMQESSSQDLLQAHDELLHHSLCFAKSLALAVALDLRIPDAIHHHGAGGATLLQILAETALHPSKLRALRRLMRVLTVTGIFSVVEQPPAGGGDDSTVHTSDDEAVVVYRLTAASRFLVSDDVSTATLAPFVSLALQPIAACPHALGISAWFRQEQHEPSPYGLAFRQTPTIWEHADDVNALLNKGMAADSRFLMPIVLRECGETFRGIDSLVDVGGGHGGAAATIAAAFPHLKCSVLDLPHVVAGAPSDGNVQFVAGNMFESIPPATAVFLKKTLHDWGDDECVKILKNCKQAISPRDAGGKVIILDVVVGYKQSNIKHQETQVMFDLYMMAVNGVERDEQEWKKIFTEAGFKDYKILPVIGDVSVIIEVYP

ZnBX10 = molecular target: T4, ZnBX10 (Zea nicaraguensis, UniProt Z9J3M6HYI4); details: SAM cosubstrate 100 µM, 20 µM substrate, pH 7, 25 °C, 1 h
T4 construct: full-length ORF, codon-optimized synthetic gene in pET100/D-TOPO, N-terminal His tag, E. coli BL21(DE3), purified
T4 sequence (Z9J3M6HYI4 1-373): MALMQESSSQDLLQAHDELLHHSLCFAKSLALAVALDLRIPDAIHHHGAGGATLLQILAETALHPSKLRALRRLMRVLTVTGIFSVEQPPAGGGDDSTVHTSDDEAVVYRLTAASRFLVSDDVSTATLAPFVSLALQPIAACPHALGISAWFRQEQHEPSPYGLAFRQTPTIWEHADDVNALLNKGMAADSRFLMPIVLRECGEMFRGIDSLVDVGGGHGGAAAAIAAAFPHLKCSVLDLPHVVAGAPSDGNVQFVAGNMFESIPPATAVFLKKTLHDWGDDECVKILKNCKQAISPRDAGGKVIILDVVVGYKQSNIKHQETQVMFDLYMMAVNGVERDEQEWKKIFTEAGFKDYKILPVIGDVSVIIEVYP

ZmBX11 = molecular target: T5, ZmBX11 (Zea mays, UniProt S5RK83); details: SAM cosubstrate 100 µM; 20 µM substrate; pH 7; 25 °C; 1 h; product isokaempferide
T5 construct: pASK-IBA37plus, N-terminal His tag, E. coli BL21(DE3), purified
T5 sequence (S5RK83 1-375): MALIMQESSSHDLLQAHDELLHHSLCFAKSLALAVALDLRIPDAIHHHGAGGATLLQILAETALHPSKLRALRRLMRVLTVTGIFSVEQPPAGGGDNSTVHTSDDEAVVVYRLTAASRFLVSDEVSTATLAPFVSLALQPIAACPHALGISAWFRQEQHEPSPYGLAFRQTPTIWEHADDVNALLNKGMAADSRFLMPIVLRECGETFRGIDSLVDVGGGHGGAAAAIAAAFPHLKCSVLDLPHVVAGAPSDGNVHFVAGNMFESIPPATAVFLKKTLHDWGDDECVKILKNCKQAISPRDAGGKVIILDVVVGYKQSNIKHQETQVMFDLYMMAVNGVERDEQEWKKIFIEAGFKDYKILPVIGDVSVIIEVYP

ZmBX14 = molecular target: T6, ZmBX14 (Zea mays, UniProt A0A1P8SEU3); details: SAM cosubstrate 100 µM, 20 µM substrate, pH 7, 25 °C, 1 h
T6 construct: pASK-IBA37plus, N-terminal His tag, E. coli BL21(DE3), purified
T6 sequence (A0A1P8SEU3 1-366): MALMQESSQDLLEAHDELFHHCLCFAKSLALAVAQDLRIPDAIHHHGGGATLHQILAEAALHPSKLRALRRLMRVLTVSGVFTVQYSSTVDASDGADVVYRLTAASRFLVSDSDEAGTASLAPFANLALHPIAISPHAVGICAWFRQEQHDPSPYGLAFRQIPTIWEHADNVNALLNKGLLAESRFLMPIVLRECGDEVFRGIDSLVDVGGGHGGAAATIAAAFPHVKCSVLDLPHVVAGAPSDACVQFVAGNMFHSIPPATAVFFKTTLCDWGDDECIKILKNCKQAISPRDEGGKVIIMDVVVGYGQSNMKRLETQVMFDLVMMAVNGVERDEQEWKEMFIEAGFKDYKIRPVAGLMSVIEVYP

[1] = product HDMBOA-Glc, positive control

Row | SMILES | LC-MS/MS product formation (ZmBX12; product isokaempferide) | LC-MS/MS product formation (SbFOMT2) | LC-MS/MS product formation (ZmBX10) | LC-MS/MS product formation (ZnBX10; product isokaempferide) | LC-MS/MS product formation (ZmBX11) | LC-MS/MS product formation (ZmBX14; lowest activity of the maize BX OMTs) | LC-MS/MS product formation (ZmBX12; [1]) | LC-MS/MS product formation (ZnBX10; product HDMBOA-Glc) | LC-MS/MS product formation (ZmBX14; [1])
1 | O=c1c(O)c(-c2ccc(O)cc2)oc2cc(O)cc(O)c12 [kaempferol] | with ZmBX12 as the most active OMT, followed by ZmBX10, ZmBX11, and ZmBX14 | ZmFOMT2 and SbFOMT2 produced only trace amounts of this compound | ZmBX10-12 and ZnBX10 produced substantial amounts of the 3-O-methylated derivative isokaempferide | ZmBX10-12 and ZnBX10 produced substantial amounts of the 3-O-methylated derivative isokaempferide | ZmBX10-12 and ZnBX10 produced substantial amounts of the 3-O-methylated derivative isokaempferide | with ZmBX12 as the most active OMT, followed by ZmBX10, ZmBX11, and ZmBX14 | – | – | –
2 | COc1ccc2c(c1)O[C@H](O[C@@H]1O[C@H](CO)[C@@H](O)[C@H](O)[C@H]1O)C(=O)N2O [DIMBOA-Glc, 2,4-dihydroxy-7-methoxy-1,4-benzoxazin-3-one glucoside] | – | – | – | – | – | – | Besides ZmBX14 and ZmBX12, ZnBX10 also converted DIMBOA-Glc to HDMBOA-Glc | ZnBX10 also converted DIMBOA-Glc to HDMBOA-Glc | Besides ZmBX14 and ZmBX12, ZnBX10 also converted DIMBOA-Glc to HDMBOA-Glc
